Measured values reported in ChEMBL document CHEMBL5331108, “Design and Synthesis of 4-Fluorophenyl-5-methylene-2(5H)-furanone Derivatives as Potent Quorum Sensing Inhibitors” (J Med Chem, 2023).
Converted amounts (≈) assume the structure as drawn. The source made the active and inactive calls. The calls are words filed in the database; no cut-off is given here.

What was measured:
Pseudomonas aeruginosa [1] = test: Synergistic antibacterial activity against Pseudomonas aeruginosa 27853 assessed as inhibition of bacterial growth at 1 to 256 ug/ml incubated for 24 hrs in the presence of Ciprofloxacin by absorbance based microplate reader analysis; assay type: functional, organism-based; settings: dose 1-256 µg/ml
Pseudomonas aeruginosa [2] = test: Antibacterial activity against Pseudomonas aeruginosa PAO1 assessed as inhibition of bacterial growth at 256 ug/ml measured after 25 hrs by absorbance based assay; assay type: functional, organism-based; settings: dose 256.0 µg/ml
Pseudomonas aeruginosa [3] = test: Synergistic antibacterial activity against Pseudomonas aeruginosa PAO1 assessed as inhibition of bacterial growth at 1 to 256 ug/ml incubated for 24 hrs in the presence of Clarithromycin by absorbance based microplate reader analysis; assay type: functional, organism-based; settings: dose 1-256 µg/ml
Escherichia coli = test: Antibacterial activity against penicillin-susceptible Escherichia coli ATCC25922 assessed as inhibition of bacterial growth incubated for 20 hrs by CLSI protocol based microdilution method; assay type: functional
[4] = Inhibition of quorum sensing system in Pseudomonas aeruginosa PAO1 assessed as inhibition of rhamnolipid production at 102.4 ug/ml incubated for 24 hrs by absorbance based assay; settings: dose 102.4 µg/ml
Pseudomonas aeruginosa [5] = test: Synergistic antibacterial activity against Pseudomonas aeruginosa PAO1 assessed as inhibition of bacterial growth at highest concentration incubated for 24 hrs in the presence of ciprofloxacin by absorbance based microplate reader analysis relative to control; assay type: functional
[6] = Inhibition of quorum sensing system in Pseudomonas aeruginosa PAO1 assessed as inhibition of protease activity at 102.4 ug/ml incubated for 24 hrs by absorbance based assay; settings: dose 102.4 µg/ml
Pseudomonas aeruginosa [7] = test: Synergistic antibacterial activity against Pseudomonas aeruginosa 27853 assessed as inhibition of bacterial growth incubated for 24 hrs in the presence of Clarithromycin by absorbance based microplate reader analysis; assay type: functional, organism-based; settings: dose 1-256 µg/ml
Pseudomonas aeruginosa [8] = test: Synergistic antibacterial activity against Pseudomonas aeruginosa PAO1 assessed as inhibition of bacterial growth at 1 to 256 ug/ml incubated for 24 hrs in the presence of ciprofloxacin by absorbance based microplate reader analysis; assay type: functional, organism-based; settings: dose 1-256 µg/ml
Bacillus pumilus = test: Antibacterial activity against penicillin-susceptible Bacillus pumilus CMCC63202 assessed as inhibition of bacterial growth incubated for 20 hrs by CLSI protocol based microdilution method; assay type: functional
Bacillus subtilis = test: Antibacterial activity against penicillin-susceptible Bacillus subtilis ATCC9372 assessed as inhibition of bacterial growth incubated for 20 hrs by CLSI protocol based microdilution method; assay type: functional
Pseudomonas aeruginosa [9] = test: Inhibition of biofilm formation in Pseudomonas aeruginosa PAO1 at 32 ug/ml incubated for 20 hrs by crystal violet staining based analysis; assay type: functional; settings: dose 32.0 µg/ml
[10] = Inhibition of quorum sensing system in Pseudomonas aeruginosa PAO1 assessed as inhibition of pyocyanin production at 102.4 ug/ml incubated for 18 hrs by absorbance based assay; settings: dose 102.4 µg/ml
Pseudomonas aeruginosa [11] = test: Antibacterial activity against penicillin-susceptible Pseudomonas aeruginosa ATCC27853 assessed as inhibition of bacterial growth incubated for 20 hrs by CLSI protocol based microdilution method; assay type: functional
Pseudomonas aeruginosa [12] = test: Antibacterial activity against Pseudomonas aeruginosa 27853 assessed as inhibition of bacterial growth at 256 ug/ml measured after 25 hrs by absorbance based assay; assay type: functional, organism-based; settings: dose 256.0 µg/ml
Staphylococcus aureus [13] = test: Antibacterial activity against erthromycin-susceptible Staphylococcus aureus ATCC25923 assessed as inhibition of bacterial growth incubated for 20 hrs by CLSI protocol based microdilution method; assay type: functional
Staphylococcus aureus [14] = test: Antibacterial activity against methicillin-resistant Staphylococcus aureus ATCC43300 assessed as inhibition of bacterial growth incubated for 20 hrs by CLSI protocol based microdilution method; assay type: functional
Pseudomonas aeruginosa [15] = test: Antibacterial activity against wild type Pseudomonas aeruginosa […] CGMCC1.12483 assessed as inhibition of bacterial growth incubated for 20 hrs by CLSI protocol based microdilution method; assay type: functional
Pseudomonas aeruginosa [16] = test: Antibacterial activity against Pseudomonas aeruginosa 27853 assessed as inhibition of bacterial growth at […] incubated for 24 hrs by absorbance based microplate reader analysis relative to control; assay type: functional; settings: dose 3.2 µg/ml
[17] = Hemolytic activity in mouse red blood cells assessed as hemolysis rate at 512 ug/ml incubated for 1 hrs by microplate reader analysis relative to control; assay type: toxicity, cell-based, Erythrocyte; settings: red blood cells (erythrocytes), at 512 µg/mL, read-out: Activity
Pseudomonas aeruginosa [18] = test: Synergistic antibacterial activity against Pseudomonas aeruginosa PAO1 assessed as inhibition of bacterial growth at 1 ug/ml incubated for 24 hrs in the presence of Clarithromycin by absorbance based microplate reader analysis relative to control; assay type: functional
Pseudomonas aeruginosa [19] = test: Antibacterial activity against Pseudomonas aeruginosa PAO1 assessed as inhibition of bacterial growth at […] incubated for 24 hrs by absorbance based microplate reader analysis relative to control; assay type: functional; settings: dose 3.2 µg/ml
Pseudomonas aeruginosa [20] = test: Synergistic antibacterial activity against Pseudomonas aeruginosa 27853 assessed as inhibition of bacterial growth at 64 ug/ml incubated for 24 hrs in the presence of Ciprofloxacin by absorbance based microplate reader analysis; assay type: functional
Pseudomonas aeruginosa [21] = test: Synergistic antibacterial activity against Pseudomonas aeruginosa 27853 assessed as inhibition of bacterial growth at 256 ug/ml incubated for 24 hrs in the presence of Clarithromycin by absorbance based microplate reader analysis relative to control; assay type: functional
Pseudomonas aeruginosa [22] = test: Synergistic antibacterial activity against Pseudomonas aeruginosa PAO1 assessed as inhibition of bacterial growth at 256 ug/ml incubated for 24 hrs in the presence of Clarithromycin by absorbance based microplate reader analysis relative to control; assay type: functional
Pseudomonas aeruginosa [23] = test: Inhibition of biofilm formation in Pseudomonas aeruginosa PAO1 assessed as effect on biofilm morphology at 102.4 ug/ml incubated for 24 hrs by scanning electron microscopic analysis; assay type: functional, organism-based; settings: dose 102.4 µg/ml
Pseudomonas aeruginosa [24] = test: Synergistic antibacterial activity against Pseudomonas aeruginosa 27853 assessed as inhibition of bacterial growth by measuring fold change in ciprofloxacin at 1 to 256 ug/ml incubated for 24 hrs by absorbance based microplate reader analysis; assay type: functional; settings: dose 1-256 µg/ml
Pseudomonas aeruginosa [25] = test: Antibacterial activity against Pseudomonas aeruginosa 27853 assessed as inhibition of bacterial growth at 0.4 ug/ml incubated for 24 hrs by absorbance based microplate reader analysis relative to control; assay type: functional
Pseudomonas aeruginosa [26] = test: Antibacterial activity against Pseudomonas aeruginosa PAO1 assessed as inhibition of bacterial growth at 0.4 ug/ml incubated for 24 hrs by absorbance based microplate reader analysis relative to control; assay type: functional
Pseudomonas aeruginosa [27] = test: Synergistic antibacterial activity against Pseudomonas aeruginosa 27853 assessed as inhibition of bacterial growth at 1 to 128 ug/ml incubated for 24 hrs by absorbance based microplate reader analysis; assay type: functional, organism-based; settings: dose 1-128 µg/ml
Enterococcus faecalis = test: Antibiofilm activity against Enterococcus faecalis ATCC19433 assessed as inhibition of biofilm formation incubated for 24 hrs by crystal violet staining based broth microdilution method; assay type: functional, organism-based; settings: ATCC19433, 24 h
Staphylococcus aureus [28] = test: Antibiofilm activity against Staphylococcus aureus ATCC33591 assessed as inhibition of biofilm formation incubated for 24 hrs by crystal violet staining based broth microdilution method; assay type: functional, organism-based; settings: ATCC33591, 24 h
Klebsiella pneumoniae = test: Antibiofilm activity against Klebsiella pneumoniae ATCC13882 assessed as inhibition of biofilm formation incubated for 24 hrs by crystal violet staining based broth microdilution method; assay type: functional, organism-based; settings: ATCC13882, 24 h

Row | SMILES | Activity (Pseudomonas aeruginosa [1]) | Activity (Pseudomonas aeruginosa [2]) | Activity (Pseudomonas aeruginosa [3]) | MIC (Escherichia coli) | inhibition [4] | inhibition [6] | Activity (Pseudomonas aeruginosa [7]) | Activity (Pseudomonas aeruginosa [8]) | MIC (Bacillus pumilus) | MIC (Bacillus subtilis) | inhibition (Pseudomonas aeruginosa [9]) | inhibition [10] | MIC (Pseudomonas aeruginosa [11]) | Activity (Pseudomonas aeruginosa [12]) | MIC (Staphylococcus aureus [13]) | MIC (Staphylococcus aureus [14]) | MIC (Pseudomonas aeruginosa [15]) | hemolysis at 1 h, 512 ug/ml [17] | also measured
1 | C=C1OC(=O)C(CNC(=O)c2ccc(OC)cc2)=C1c1ccc(F)cc1 | Active | inactive | Active | > 512 µg/mL | Active | 8.6% | Dose-Dependent Effect | Active | 32 µg/mL (≈ 90.6 µM) | 128 µg/mL (≈ 362 µM) | Active | 44% | > 512 µg/mL | inactive | 32 µg/mL (≈ 90.6 µM) | 64 µg/mL (≈ 181 µM) | > 512 µg/mL | – | inhibition (INH) (Pseudomonas aeruginosa [5]): 90.53%
2 | CC[C@H]1OC(=O)[C@H](C)[C@@H](O[C@H]2C[C@@](C)(OC)[C@@H](O)[C@H](C)O2)[C@H](C)[C@@H](O[C@@H]2O[C@H](C)C[C@H](N(C)C)[C@H]2O)[C@](C)(OC)C[C@@H](C)C(=O)[C@H](C)[C@@H](O)[C@]1(C)O [CLARITHROMYCIN] | – | – | – | 128 µg/mL (≈ 171 µM) | – | – | – | – | 0.25 µg/mL (≈ 0.334 µM) | 0.25 µg/mL (≈ 0.334 µM) | – | – | 128 µg/mL (≈ 171 µM) | – | 0.25 µg/mL (≈ 0.334 µM) | 16 µg/mL (≈ 21.4 µM) | 256 µg/mL (≈ 342 µM) | – | inhibition at […] (Pseudomonas aeruginosa [16]): 32.7%
3 | C=C1OC(=O)C(CNC(=O)c2ccc(C)cc2)=C1c1ccc(F)cc1 | Active | inactive | Active | > 512 µg/mL | Active | Active | Dose-Dependent Effect | Active | > 512 µg/mL | > 512 µg/mL | Active | 55.5% | > 512 µg/mL | inactive | > 512 µg/mL | > 512 µg/mL | > 512 µg/mL | < 2.5% | inhibition at 1 µg/mL (Pseudomonas aeruginosa [18]): 54%; inhibition at […] (Pseudomonas aeruginosa [19]): 44.6%; inhibition at 64 µg/mL (Pseudomonas aeruginosa [20]): 13%; inhibition at 256 µg/mL (Pseudomonas aeruginosa [21]): 45.4%; inhibition at 256 µg/mL (Pseudomonas aeruginosa [22]): 44.6%
4 | CC[C@H]1OC(=O)[C@H](C)[C@@H](O[C@H]2C[C@@](C)(OC)[C@@H](O)[C@H](C)O2)[C@H](C)[C@@H](O[C@@H]2O[C@H](C)C[C@H](N(C)C)[C@H]2O)[C@](C)(O)C[C@@H](C)CN(C)[C@H](C)[C@@H](O)[C@]1(C)O [AZITHROMYCIN] | – | – | – | 128 µg/mL (≈ 171 µM) | – | – | – | – | 0.25 µg/mL (≈ 0.334 µM) | 0.25 µg/mL (≈ 0.334 µM) | – | – | 16 µg/mL (≈ 21.4 µM) | – | 0.25 µg/mL (≈ 0.334 µM) | 256 µg/mL (≈ 342 µM) | 256 µg/mL (≈ 342 µM) | – | inhibition (Pseudomonas aeruginosa [23]): inactive
5 | C=C1C(c2ccc(F)cc2)=C(CNC(=O)c2ccc(C)cc2)C(=O)N1c1ccccc1C | Active | inactive | Active | > 512 µg/mL | 45.9% | 8.6% | Dose-Dependent Effect | Active | 512 µg/mL (≈ 1200 µM) | > 512 µg/mL | inactive | 38.3% | > 512 µg/mL | inactive | > 512 µg/mL | > 512 µg/mL | 512 µg/mL (≈ 1200 µM) | < 2.5% | fold change (FC) (Pseudomonas aeruginosa [24]): >=1.5
6 | O=C(O)c1cn(C2CC2)c2cc(N3CCNCC3)c(F)cc2c1=O [CIPROFLOXACIN] | – | – | – | – | – | – | – | – | – | – | – | – | – | – | – | – | – | – | inhibition at 0.4 µg/mL (Pseudomonas aeruginosa [25]): 26.2%; inhibition at 0.4 µg/mL (Pseudomonas aeruginosa [26]): 42.1%
7 | C=C1OC(=O)C(CNC(=O)c2ccc(Br)cc2)=C1c1ccc(F)cc1 | Active | inactive | Active | > 512 µg/mL | 48.5% | 8.6% | Dose-Dependent Effect | Active | > 512 µg/mL | 16 µg/mL (≈ 39.8 µM) | inactive | 34.7% | > 512 µg/mL | inactive | > 512 µg/mL | 8 µg/mL (≈ 19.9 µM) | > 512 µg/mL | > 2.5% | Activity (Pseudomonas aeruginosa [27]): Active; fold change (FC) (Pseudomonas aeruginosa [24]): >=1.5
8 | O=C1O/C(=C\c2cc(Br)c(O)c(Br)c2)C(c2ccc(O)c(Br)c2)=C1C(=O)c1ccccc1 | – | – | – | – | – | – | – | – | – | – | – | – | – | – | – | – | – | – | IC50 (Enterococcus faecalis): 3.6 µg/mL (≈ 5.8 µM); IC50 (Staphylococcus aureus [28]): 0.7 µg/mL (≈ 1.13 µM); IC50 (Klebsiella pneumoniae): 7.5 µg/mL (≈ 12.1 µM)
